The source made the active and inactive calls.

The IC50 is the midpoint of a concentration-inhibition curve. For orientation: EC50 means the midpoint of the concentration-response curve.

The target in data set [1] is Serine/threonine-protein phosphatase PP1-alpha catalytic subunit (Homo sapiens, UniProt P62136). Kind of data set: inhibition of protein phosphatase 1 activity – biochemical, fluorescence, dose response (AID 2394).
Data set [2] concerns the target Serine/threonine-protein phosphatase (Homo sapiens, UniProt Q9BPW0). Briefly: inhibition of protein phosphatase 5 activity – biochemical, fluorescence, dose response (AID 2395).
The nature of data set [3]: IC50 of Artemis nuclease activity blockers – biochemical, fluorescence intensity, dose response (AID 720701).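 Also: Artemis endonuclease enzyme.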 In kind it is functional.
The target in data set [4] is T1, NADPH oxidase 1 (Homo sapiens, UniProt Q9Y5S8). The data set is classed as functional, cell-based.
T1 sequence (Q9Y5S8 whole entry): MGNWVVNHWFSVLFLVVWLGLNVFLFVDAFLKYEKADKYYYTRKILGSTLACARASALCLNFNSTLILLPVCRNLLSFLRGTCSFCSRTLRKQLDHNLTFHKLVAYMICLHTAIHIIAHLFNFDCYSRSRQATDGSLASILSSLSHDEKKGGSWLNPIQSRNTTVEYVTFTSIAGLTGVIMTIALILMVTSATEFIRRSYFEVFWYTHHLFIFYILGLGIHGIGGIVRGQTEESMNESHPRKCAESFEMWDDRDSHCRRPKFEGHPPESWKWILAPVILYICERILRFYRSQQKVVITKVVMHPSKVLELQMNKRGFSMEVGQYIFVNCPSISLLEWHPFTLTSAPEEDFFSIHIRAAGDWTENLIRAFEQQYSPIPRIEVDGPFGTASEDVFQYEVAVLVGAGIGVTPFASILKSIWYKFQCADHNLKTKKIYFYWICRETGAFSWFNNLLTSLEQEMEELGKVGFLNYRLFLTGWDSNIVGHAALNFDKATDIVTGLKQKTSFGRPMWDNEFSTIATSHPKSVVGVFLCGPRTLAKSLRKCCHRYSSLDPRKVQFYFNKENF
In data set [5] the target is T1, NADPH oxidase 1. Briefly: Late-stage luminescence-based cell-based dose response assay to identify inhibitors of NADPH oxidase 1 (NOX1): Purchased analogs 2. In kind it is functional.
For data set [6], the target named is Sphingosine 1-phosphate receptor 2 (Homo sapiens, UniProt O95136). Kind of data set: Dose Response Cell-Based Assay for Agonists of the Sphingosine 1-Phosphate Receptor 2 (S1P2): Purchased Analogues. [Related pubchem assays: 1192, 373, 439 ]. In kind it is functional.
Chain of Sphingosine 1-phosphate receptor 2 (O95136 whole entry): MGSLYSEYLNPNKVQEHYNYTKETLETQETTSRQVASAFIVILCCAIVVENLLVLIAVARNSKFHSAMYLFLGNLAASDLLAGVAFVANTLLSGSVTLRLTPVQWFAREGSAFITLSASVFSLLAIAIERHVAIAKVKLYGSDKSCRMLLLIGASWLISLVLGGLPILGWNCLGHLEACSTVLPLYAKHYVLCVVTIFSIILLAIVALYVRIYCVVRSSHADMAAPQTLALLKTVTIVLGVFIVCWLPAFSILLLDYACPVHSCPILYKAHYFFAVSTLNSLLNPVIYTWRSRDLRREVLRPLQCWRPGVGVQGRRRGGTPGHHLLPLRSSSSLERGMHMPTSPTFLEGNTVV
The target of data set [7] is Sphingosine 1-phosphate receptor 3 (Homo sapiens, UniProt Q99500). Kind of data set: Dose Response Cell-Based Assay for Agonists of the Sphingosine 1-Phosphate Receptor 3 (S1P3): Purchased Analogues. [Related pubchem assays: 373, 439 ]. The data set is classed as functional.
Chain of Sphingosine 1-phosphate receptor 3 (Q99500 whole entry): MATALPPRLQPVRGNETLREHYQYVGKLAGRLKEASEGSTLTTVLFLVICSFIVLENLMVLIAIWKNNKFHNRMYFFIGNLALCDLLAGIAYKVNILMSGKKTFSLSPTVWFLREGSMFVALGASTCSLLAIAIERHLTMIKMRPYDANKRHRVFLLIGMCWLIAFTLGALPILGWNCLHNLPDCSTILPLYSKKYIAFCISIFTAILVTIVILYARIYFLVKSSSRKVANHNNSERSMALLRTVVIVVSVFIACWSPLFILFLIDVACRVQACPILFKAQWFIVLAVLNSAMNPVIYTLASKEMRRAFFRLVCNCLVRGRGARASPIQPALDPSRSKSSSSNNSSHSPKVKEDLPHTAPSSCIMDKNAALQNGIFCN
The target in data set [8] is Sphingosine 1-phosphate receptor 1 (Homo sapiens, UniProt P21453). Kind of data set: Dose Response Cell-Based Assay for Agonists of the Sphingosine 1-Phosphate Receptor 1 (S1P1): Purchased Analogues. [Related pubchem assays: 1192, 373, 439 ]. In kind it is functional.
Chain of Sphingosine 1-phosphate receptor 1 (P21453 whole entry): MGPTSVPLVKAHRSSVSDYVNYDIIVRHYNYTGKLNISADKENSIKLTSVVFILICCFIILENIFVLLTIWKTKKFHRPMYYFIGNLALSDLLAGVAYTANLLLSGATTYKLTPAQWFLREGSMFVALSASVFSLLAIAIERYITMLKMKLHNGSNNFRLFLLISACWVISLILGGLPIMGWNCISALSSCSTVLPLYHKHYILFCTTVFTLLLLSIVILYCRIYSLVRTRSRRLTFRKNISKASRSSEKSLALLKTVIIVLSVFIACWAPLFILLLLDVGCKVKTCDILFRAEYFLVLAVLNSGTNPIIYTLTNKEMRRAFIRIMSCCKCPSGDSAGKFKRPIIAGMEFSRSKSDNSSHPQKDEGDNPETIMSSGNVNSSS
For data set [9], the target named is 5-hydroxytryptamine receptor 1A (Homo sapiens, UniProt P08908). In kind it is functional.
Data set [10] addresses Voltage-gated inwardly rectifying potassium channel KCNH2 (Homo sapiens, UniProt Q12809). Kind of data set: concentration-dependent hERG rescue from blockers – cell-based, thallium flux, dose response (AID 2121). The data set is classed as ADME.
For data set [11], the target named is T2, Rac GTPase-activating protein 1 (Homo sapiens, UniProt Q9H0H5).
T2 sequence (Q9H0H5 whole entry): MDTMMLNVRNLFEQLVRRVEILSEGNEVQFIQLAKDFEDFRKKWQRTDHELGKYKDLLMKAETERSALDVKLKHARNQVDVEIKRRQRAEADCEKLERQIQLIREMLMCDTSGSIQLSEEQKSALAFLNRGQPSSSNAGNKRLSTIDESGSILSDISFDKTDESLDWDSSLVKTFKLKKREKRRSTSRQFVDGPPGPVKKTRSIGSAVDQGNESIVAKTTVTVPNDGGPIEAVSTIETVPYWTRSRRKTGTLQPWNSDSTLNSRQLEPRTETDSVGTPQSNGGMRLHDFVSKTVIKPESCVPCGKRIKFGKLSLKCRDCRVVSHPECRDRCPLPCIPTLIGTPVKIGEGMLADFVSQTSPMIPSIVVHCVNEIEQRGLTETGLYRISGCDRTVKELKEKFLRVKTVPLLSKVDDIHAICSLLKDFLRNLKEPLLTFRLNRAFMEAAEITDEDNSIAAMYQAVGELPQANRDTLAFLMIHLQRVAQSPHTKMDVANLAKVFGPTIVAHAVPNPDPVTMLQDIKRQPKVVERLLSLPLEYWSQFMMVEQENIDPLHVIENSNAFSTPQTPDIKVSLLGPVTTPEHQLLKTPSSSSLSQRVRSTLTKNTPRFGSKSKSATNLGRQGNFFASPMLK
Briefly: blockers of MgcRacGAP-driven Rac1 GTP hydrolysis – biochemical, ADP Hunter fluorescence, primary and confirmatory, confirmation (AID 624330). In kind it is functional.

The target in data set [12] is T3, Neuropeptide Y receptor type 2 (Homo sapiens, UniProt P49146).
T3 sequence (P49146 whole entry): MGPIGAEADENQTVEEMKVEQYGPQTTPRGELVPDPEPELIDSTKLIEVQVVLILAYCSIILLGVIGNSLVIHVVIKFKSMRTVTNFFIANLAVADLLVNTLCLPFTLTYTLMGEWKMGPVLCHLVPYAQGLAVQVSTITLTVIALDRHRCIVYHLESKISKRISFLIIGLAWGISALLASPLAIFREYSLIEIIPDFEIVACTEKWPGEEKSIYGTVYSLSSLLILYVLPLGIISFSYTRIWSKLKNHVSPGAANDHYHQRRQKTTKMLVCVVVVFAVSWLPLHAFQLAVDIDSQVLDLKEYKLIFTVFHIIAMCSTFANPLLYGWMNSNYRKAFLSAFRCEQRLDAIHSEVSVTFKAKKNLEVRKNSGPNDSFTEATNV
Kind of data set: IC50 for human NPY-Y2 blockade – cell-based, counter-screen for NPY-Y1 antagonist project, dose response (AID 1278). In kind it is functional. (In general: The purpose of a counterscreen is to sort out artefacts and off-target activity.)

The target in data set [13] is Solute carrier family 12 member 2/member 5 (Homo sapiens, UniProt P55011+Q9H2X9). Briefly: KCC2 and NKCC1 inhibition by rubidium flux, cell-based, NKCC1 counter-screen (AID 1734). In kind it is functional, HEK293.
Data set [14] concerns the target Aryl hydrocarbon receptor (Homo sapiens, UniProt P35869). Kind of data set: Luminescence-based cell-based high throughput dose response assay for activators of the Aryl Hydrocarbon Receptor (AHR). [Related pubchem assays: 2796 (Primary screen (AHR activators in singlicate)), 2845 (Confirmation screen (AHR activators in triplicate)), 434939 (Counterscreen (PXR activators in triplicate)), 2804 (Summary (AHR activators))]. The data set is classed as ADME.

A further data set addresses Cytochrome P450 3A4 (Homo sapiens, UniProt P08684).
The target in another data set is Cytochrome P450 2D6 (Homo sapiens, UniProt P10635).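 Also: CYP2D6 member of a cytochrome P450 panel assay.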

Chain of Cytochrome P450 3A4 (P08684 whole entry): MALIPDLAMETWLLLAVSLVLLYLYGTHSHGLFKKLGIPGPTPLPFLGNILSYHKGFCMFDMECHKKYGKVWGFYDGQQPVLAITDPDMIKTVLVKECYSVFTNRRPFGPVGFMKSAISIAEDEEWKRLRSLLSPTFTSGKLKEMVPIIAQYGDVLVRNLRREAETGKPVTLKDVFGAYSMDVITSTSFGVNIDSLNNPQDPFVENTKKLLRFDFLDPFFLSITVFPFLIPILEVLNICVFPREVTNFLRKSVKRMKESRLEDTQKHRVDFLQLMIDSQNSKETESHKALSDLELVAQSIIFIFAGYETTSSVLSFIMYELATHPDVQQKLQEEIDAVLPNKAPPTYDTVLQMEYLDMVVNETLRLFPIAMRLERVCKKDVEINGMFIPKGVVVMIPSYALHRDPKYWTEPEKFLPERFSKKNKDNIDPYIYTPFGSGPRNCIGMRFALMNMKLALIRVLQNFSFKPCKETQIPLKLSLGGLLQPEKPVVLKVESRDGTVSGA
Chain of Aryl hydrocarbon receptor (P35869 whole entry): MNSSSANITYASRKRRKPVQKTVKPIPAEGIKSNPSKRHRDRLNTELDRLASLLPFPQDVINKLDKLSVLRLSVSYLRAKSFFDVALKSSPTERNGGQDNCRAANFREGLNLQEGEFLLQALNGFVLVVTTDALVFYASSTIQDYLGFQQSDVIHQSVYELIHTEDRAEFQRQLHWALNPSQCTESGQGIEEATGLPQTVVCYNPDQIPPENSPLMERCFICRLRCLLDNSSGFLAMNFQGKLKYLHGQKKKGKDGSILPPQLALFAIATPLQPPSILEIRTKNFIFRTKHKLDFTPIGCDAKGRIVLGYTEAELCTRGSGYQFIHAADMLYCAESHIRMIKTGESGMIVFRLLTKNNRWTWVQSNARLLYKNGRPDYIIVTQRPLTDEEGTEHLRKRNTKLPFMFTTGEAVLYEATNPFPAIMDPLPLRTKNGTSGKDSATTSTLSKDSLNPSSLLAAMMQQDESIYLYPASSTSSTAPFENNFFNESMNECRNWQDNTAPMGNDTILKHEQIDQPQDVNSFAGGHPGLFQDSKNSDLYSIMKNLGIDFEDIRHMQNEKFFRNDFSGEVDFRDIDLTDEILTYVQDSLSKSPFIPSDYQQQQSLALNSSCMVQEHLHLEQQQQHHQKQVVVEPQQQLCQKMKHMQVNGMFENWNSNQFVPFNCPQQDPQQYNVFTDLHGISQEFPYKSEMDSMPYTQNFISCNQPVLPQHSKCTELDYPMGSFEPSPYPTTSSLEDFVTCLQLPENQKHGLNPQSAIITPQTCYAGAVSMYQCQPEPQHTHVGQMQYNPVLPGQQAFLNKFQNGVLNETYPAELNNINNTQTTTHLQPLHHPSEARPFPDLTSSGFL
Chain of Serine/threonine-protein phosphatase (Q9BPW0 whole entry): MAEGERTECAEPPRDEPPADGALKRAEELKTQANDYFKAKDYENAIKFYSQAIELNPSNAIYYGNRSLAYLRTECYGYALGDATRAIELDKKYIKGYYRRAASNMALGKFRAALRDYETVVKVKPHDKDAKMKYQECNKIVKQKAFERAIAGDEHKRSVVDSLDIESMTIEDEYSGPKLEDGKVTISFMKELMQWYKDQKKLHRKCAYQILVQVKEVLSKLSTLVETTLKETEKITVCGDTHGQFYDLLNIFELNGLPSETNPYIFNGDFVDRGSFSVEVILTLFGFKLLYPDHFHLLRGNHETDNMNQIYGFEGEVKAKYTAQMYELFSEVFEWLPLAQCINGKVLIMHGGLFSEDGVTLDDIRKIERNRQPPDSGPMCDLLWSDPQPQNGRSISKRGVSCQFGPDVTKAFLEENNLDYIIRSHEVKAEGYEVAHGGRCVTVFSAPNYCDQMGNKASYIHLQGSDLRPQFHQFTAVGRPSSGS
Chain of Voltage-gated inwardly rectifying potassium channel KCNH2 (Q12809 whole entry): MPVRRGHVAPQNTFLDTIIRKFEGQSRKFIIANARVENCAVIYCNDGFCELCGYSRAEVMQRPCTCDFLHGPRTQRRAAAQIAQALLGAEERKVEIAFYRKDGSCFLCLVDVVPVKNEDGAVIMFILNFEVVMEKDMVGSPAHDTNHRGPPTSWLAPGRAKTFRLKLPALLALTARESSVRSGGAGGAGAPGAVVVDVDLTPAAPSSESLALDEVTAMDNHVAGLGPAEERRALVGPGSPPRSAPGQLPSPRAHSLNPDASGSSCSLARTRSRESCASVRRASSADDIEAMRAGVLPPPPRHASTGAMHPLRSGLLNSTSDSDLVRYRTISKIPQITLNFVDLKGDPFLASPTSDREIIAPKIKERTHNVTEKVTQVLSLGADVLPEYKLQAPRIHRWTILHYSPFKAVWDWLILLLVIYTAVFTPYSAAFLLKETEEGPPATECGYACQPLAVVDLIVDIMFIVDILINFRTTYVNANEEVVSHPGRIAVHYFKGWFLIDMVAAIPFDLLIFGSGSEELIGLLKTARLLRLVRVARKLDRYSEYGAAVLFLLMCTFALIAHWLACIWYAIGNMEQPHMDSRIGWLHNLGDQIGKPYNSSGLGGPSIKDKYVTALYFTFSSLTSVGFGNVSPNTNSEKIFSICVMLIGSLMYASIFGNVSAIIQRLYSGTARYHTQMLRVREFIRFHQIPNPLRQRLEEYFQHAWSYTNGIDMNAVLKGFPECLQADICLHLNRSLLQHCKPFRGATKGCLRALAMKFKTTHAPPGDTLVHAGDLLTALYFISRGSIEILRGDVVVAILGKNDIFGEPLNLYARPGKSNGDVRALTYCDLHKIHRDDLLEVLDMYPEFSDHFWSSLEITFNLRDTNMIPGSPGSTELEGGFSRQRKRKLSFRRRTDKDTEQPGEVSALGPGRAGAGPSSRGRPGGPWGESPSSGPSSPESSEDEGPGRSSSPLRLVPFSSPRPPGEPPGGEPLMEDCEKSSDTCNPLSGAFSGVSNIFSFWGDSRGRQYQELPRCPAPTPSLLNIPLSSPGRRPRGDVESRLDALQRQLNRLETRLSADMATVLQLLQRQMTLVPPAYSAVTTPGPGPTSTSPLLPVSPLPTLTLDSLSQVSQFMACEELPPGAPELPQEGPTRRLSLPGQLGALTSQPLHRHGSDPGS
Chain of Serine/threonine-protein phosphatase PP1-alpha catalytic subunit (P62136 whole entry): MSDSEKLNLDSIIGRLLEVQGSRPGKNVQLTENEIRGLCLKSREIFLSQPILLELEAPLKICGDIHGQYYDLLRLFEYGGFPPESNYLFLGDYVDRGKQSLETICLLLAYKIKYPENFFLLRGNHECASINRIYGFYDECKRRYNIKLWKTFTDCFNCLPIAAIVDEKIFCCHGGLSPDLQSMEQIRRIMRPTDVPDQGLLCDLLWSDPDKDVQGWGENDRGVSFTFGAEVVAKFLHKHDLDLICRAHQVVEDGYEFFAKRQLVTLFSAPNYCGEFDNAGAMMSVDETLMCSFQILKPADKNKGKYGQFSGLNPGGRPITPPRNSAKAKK

As to `CCCN(CC1CC1)c1nc(N)c2c(N)nc(OC)cc2c1C#N`, the values for the IC50 in data set [1], in data set [2] and in [3] were > 67 µM (not active), 9.67 µM (active) and > 20 µM (inactive), respectively.

Turning to `O=C(Oc1cccc([N+](=O)[O-])c1)c1sc2ccccc2c1Cl`, the IC50 against NADPH oxidase 1 [4] is listed as > 17 µM (not active).

In the case of `CC(=O)Nc1ccc(/C=N/Nc2ccccc2)cc1`, on NADPH oxidase 1 [5], the IC50 was 6.22 µM (active).

For the molecule `CCC(C)NC(=O)c1cc(-c2ccc(C)cc2)on1` (configuration not stated), the figures for the EC50 in data set [6], in data set [7] and in [8] were > 10 µM (not active), > 50 µM (not active) and > 50 µM (not active), respectively.

As for `CCOC(=O)c1c(C)nc(-c2ccccc2)nc1NC(=O)CC`, the 50% effective concentration (EC50) in [9] was > 50 µM (not active).

Turning to `O=[N+]([O-])c1ccccc1OCCNCc1ccccc1`, in [10], the EC50 was 4.78 µM (active). Besides, the IC50 in data set [11] is 153 µM (active).

As for `COc1cccc(Oc2c[nH]nc2-c2ccc(O)cc2O)c1`, the IC50 in data set [12] was > 35 µM (not active); in data set [11], 39.4 µM (active).

In the case of `Cc1cnc(NC(=O)CSc2nnc(Cc3ccccc3)o2)s1`, the IC50 in data set [13] is 19.7 µM (active).

Regarding `Cc1cc(C)nc(Nc2ncc(O)n2-c2ccccc2)n1`, the EC50 in data set [14] is 9.35 µM (active). Also, the AC50 result on Cytochrome P450 3A4 and on Cytochrome P450 2D6 was “inconclusive” throughout.

These data come from ChEMBL document CHEMBL1201862, “PubChem BioAssay data set” (2004).
